# Experiments:
# [1] = tested on: STEME; test: greenhouse pre-emergence herbicidal activity; type: in vivo, Stellaria media; conditions: scale 0 to 100
# Text: (§1) The culture containers used were plastic flowerpots containing loamy sand with approximately 3.0% of humus as the substrate. The seeds of the test plants were sown separately for each species.
# (§2) For the pre-emergence treatment, the active ingredients, which had been suspended or emulsified in water, were applied directly after sowing by means of finely distributing nozzles. The containers were irrigated gently to promote germination and growth and subsequently covered with transparent plastic hoods until the plants had rooted. This cover caused uniform germination of the test plants, unless this has been impaired by the active ingredients.
# (§3) Depending on the species, the plants were kept at 10-25° C. or 20-35° C. The test period extended over 2 to 4 weeks. During this time, the plants were tended, and their response to the individual treatments was evaluated.
# (§4) Evaluation was carried out using a scale from 0 to 100. 100 means no emergence of the plants, or complete destruction of at least the aerial moieties, and 0 means no damage, or normal course of growth. A good herbicidal activity is given at values of at least 70 and a very good herbicidal activity is given at values of at least 85.
# [2] = tested on: LAMAM; test: greenhouse pre-emergence herbicidal activity; type: in vivo, Lamium amplexicaule; conditions: scale 0 to 100
# Text: as §1, §2, §3, §4
# [3] = tested on: PANDI; test: greenhouse pre-emergence herbicidal activity; type: in vivo, Panicum dichotomiflorun; conditions: scale 0 to 100
# Text: as §1, §2, §3, §4
# [4] = tested on: SETVI; test: greenhouse pre-emergence herbicidal activity; type: in vivo, Setaria viridis; conditions: scale 0 to 100
# Text: as §1, §2, §3, §4
# [5] = tested on: ABUTH; test: greenhouse pre-emergence herbicidal activity; type: in vivo, Abutilon theophrasti; conditions: scale 0 to 100
# Text: as §1, §2, §3, §4
# [6] = tested on: SETFA; test: greenhouse post-emergence herbicidal activity; type: in vivo, Setaria faberi; conditions: scale 0 to 100
# Text: as §1
# (§5) For the post-emergence treatment, the test plants were first grown to a height of 3 to 15 cm, depending on the plant habit, and only then treated with the active ingredients which had been suspended or emulsified in water. For this purpose, the test plants were either sown directly and grown in the same containers, or they were first grown separately as seedlings and transplanted into the test containers a few days prior to treatment.
# as §3, §4
# [7] = tested on: SETVI; test: greenhouse post-emergence herbicidal activity; type: in vivo, Setaria viridis; conditions: scale 0 to 100
# Text: as §1, §5, §3, §4
# [8] = tested on: ECHCG; test: greenhouse post-emergence herbicidal activity; type: in vivo, Echinocloa crus-galli; conditions: scale 0 to 100
# Text: as §1, §5, §3, §4
# [9] = tested on: BRAPL; test: greenhouse post-emergence herbicidal activity; type: in vivo, Brachiaria plantaginea; conditions: scale 0 to 100
# Text: as §1, §5, §3, §4
# [10] = tested on: DIGSA; test: greenhouse post-emergence herbicidal activity; type: in vivo, Digitaria sanguinales; conditions: scale 0 to 100
# Text: as §1, §5, §3, §4
# [11] = tested on: Abutilon theophrasti; test: greenhouse post-emergence herbicidal activity; type: in vivo; conditions: 6.25 g/ha, post-emergence method
# Text: as §1, §5, §3, §4
# [12] = tested on: Ambrosia elatior; test: greenhouse post-emergence herbicidal activity; type: in vivo; conditions: 6.25 g/ha, post-emergence method
# Text: as §1, §5, §3, §4
# [13] = tested on: Chenopodium album; test: greenhouse post-emergence herbicidal activity; type: in vivo; conditions: 6.25 g/ha, post-emergence method
# Text: as §1, §5, §3, §4
# [14] = tested on: Pharbitis purpurea; test: greenhouse post-emergence herbicidal activity; type: in vivo; conditions: 6.25 g/ha, post-emergence method
# Text: as §1, §5, §3, §4
# [15] = tested on: Amaranthus retroflexus; test: greenhouse pre-emergence herbicidal activity; type: in vivo; conditions: 6.25 g/ha, pre-emergence method
# Text: as §1, §2, §3, §4
# [16] = tested on: Erigeron canadensis; test: greenhouse pre-emergence herbicidal activity; type: in vivo; conditions: 6.25 g/ha, pre-emergence method
# Text: as §1, §2, §3, §4
smiles,measurement,setting,value
"Cn1nc(C(F)(F)F)c(CS(=O)(=O)C2=NOC(C)(C)C2)c1OC(F)F [B.117, pyroxasulfone, reference compound]",herbicidal activity against STEME found,[1]; B.117 6.25 g/ha a.s.,60
same,herbicidal activity against LAMAM found,[2]; B.117 6.25 g/ha a.s.,35
"COC[C@H](C)N(C(=O)CCl)c1c(C)csc1C [B.107, dimethenamid-P, reference compound]",herbicidal activity against PANDI found,[3]; B.107 15 g/ha a.s.,95
same,herbicidal activity against SETVI found,[4]; B.107 15 g/ha a.s.,70
"CC(C)N(C)S(=O)(=O)NC(=O)c1cc(-n2c(=O)cc(C(F)(F)F)n(C)c2=O)c(F)cc1Cl [B.76, saflufenacil, reference compound]",herbicidal activity against PANDI found,[3]; B.76 6.25 g/ha a.s.,55
same,herbicidal activity against ABUTH found,[5]; B.76 6.25 g/ha a.s.,75
same,herbicidal activity against SETFA found,[6]; B.76 12.5 g/ha a.s.,30
same,herbicidal activity against SETVI found,[7]; B.76 12.5 g/ha a.s.,40
"CCC(CC)Nc1c([N+](=O)[O-])cc(C)c(C)c1[N+](=O)[O-] [B.102, pendimethalin, reference compound]",herbicidal activity against STEME found,[1]; B.102 400 g/ha a.s.,75
"CC(C)N.O=C(O)CNCP(=O)(O)O [B.97, glyphosate-isopropylammonium, reference compound]",herbicidal activity against ECHCG found,[8]; B.97 135 g/ha a.s.,85
"Cc1cnc(C2=NC(=O)C(C)(C(C)C)N2)c(C(=O)O)c1 (stereo not drawn) [B.30, imazapic, reference compound]",herbicidal activity against BRAPL found,[9]; B.30 10 g/ha a.s.,70
same,herbicidal activity against DIGSA found,[10]; B.30 10 g/ha a.s.,85
"C#CCN1C(=O)C(F)(F)Oc2cc(F)c(N3C(=O)C4=C(CCCC4)C3=O)cc21 [Ia18, 2-(2,2,7-Trifluoro-3-oxo-4-prop-2-ynyl-3,4-dihydro-2H-benzo[1,4]oxazin-6-yl)-4,5,6,7-tetrahydro-isoindole-1,3-dione]",herbicidal activity against Abutilon theophrasti,[11],very good herbicidal activity (a very good herbicidal activity is given at values of at least 85)
same,herbicidal activity against Ambrosia elatior,[12],very good herbicidal activity (a very good herbicidal activity is given at values of at least 85)
same,herbicidal activity against Chenopodium album,[13],very good herbicidal activity (a very good herbicidal activity is given at values of at least 85)
same,herbicidal activity against Pharbitis purpurea,[14],very good herbicidal activity (a very good herbicidal activity is given at values of at least 85)
same,herbicidal activity against Amaranthus retroflexus,[15],very good herbicidal activity (a very good herbicidal activity is given at values of at least 85)
same,herbicidal activity against Erigeron canadensis,[16],very good herbicidal activity (a very good herbicidal activity is given at values of at least 85)
same,herbicidal activity against BRAPL found,[9]; Ia18 6.25 g/ha a.s.,25
same,herbicidal activity against DIGSA found,[10]; Ia18 6.25 g/ha a.s.,20
same,herbicidal activity against PANDI found,[3]; Ia18 12.5 g/ha a.s.,70
same,herbicidal activity against PANDI found,[3]; Ia18 25 g/ha a.s.,95
same,herbicidal activity against ABUTH found,[5]; Ia18 12.5 g/ha a.s.,55
same,herbicidal activity against SETFA found,[6]; Ia18 6.25 g/ha a.s.,70
same,herbicidal activity against SETVI found,[7]; Ia18 6.25 g/ha a.s.,55
same,herbicidal activity against ECHCG found,[8]; Ia18 6.25 g/ha a.s.,30
same,herbicidal activity against STEME found,[1]; Ia18 12.5 g/ha a.s.,65
same,herbicidal activity against STEME found,[1]; Ia18 13 g/ha a.s.,65
same,herbicidal activity against SETVI found,[4]; Ia18 25 g/ha a.s.,90
same,herbicidal activity against LAMAM found,[2]; Ia18 12.5 g/ha a.s.,80

# Source: patent US8445407B2, “Herbicidal tetrahydrophthalimides” (BASF SE, priority 2009, dated 2013)
